Source: patent publication US7405317B2, “Phosphate-bearing prodrugs of sulfonyl hydrazines as hypoxia-selective antineoplastic agents” (priority 2004, dated 2008)

Assays:
[1] = test system: CHO-450red (human cytochrome P-450 reductase transfected CHO cells); assay: Aerobic/hypoxic cell survival, cytochrome P-450 reductase transfected CHO cells; type: cell-based; details: drug 10 μM
Method: (§1) EMT6 or CHO (parental or human cytochrome P-450 reductase transfected) cells, seeded in glass milk dilution bottles, were gassed for 2 hours through a rubber septum fitted with 13 gauge (inflow) and 18 gauge (outflow) needles with a mixture of 5% CO2, oxygen at various concentrations, with the balance of the mixture made up of nitrogen, to establish various hypoxic conditions. Drugs were then injected without disrupting hypoxia. After two hours, cells were collected and plated in a clonogenic assay to determine the surviving fraction, compared to untreated controls.
(§2) For in vitro analysis, KS119W must be converted to KS119OH (1) in an AP-catalyzed reaction shown above in FIG. 2, as the phosphorylated parent drug cannot cross cell membranes. KS119OH is then used in all subsequent in vitro studies shown in this section.
(§3) Like KS119, cytochrome P-450 reductase can activate KS1190H under hypoxic conditions.

[2] = Short term stability as a function of pH and citrate buffer (HPLC); type: physicochemical; details: 20 mg/mL
Method: The stabilities of VNP40541 were investigated. The sample (20 mg/mL) was dissolved in 20 mM citric acid and titrated to pH 2.0, pH 3.0, pH 4.0, pH 5.0, pH 6.0, and pH 7.0. To control for buffer catalysis, the drug was also titrated to pH 2.0, pH 5.0, and pH 6.0 in the absence of citrate. The samples were stored at 40° C. for 3 hours, 24 hours, and 3 days, and at room temperature for 24 hours, 3 days. Upon completion of each time point, samples were placed in a freezer at −15° C. Control samples of each preparation were also stored in the freezer. Each sample was analyzed by HPLC repetitively, at various time points, to determine the concentration of the respective drug.

[3] = test system: CHO-SCS-II (non-transfected parental line); assay: Aerobic/hypoxic cell survival, parental CHO cells; type: cell-based; details: drug 10 μM
Method: as §1, §2, §3

[4] = Maximum tolerated dose (MTD) finding; type: in vivo, mice
Method: In order to fairly select a better compound from two enantiomers of KS119W for future clinical development, finding maximum tolerated dose (MTD) for VNP40541 (R-form) and VNP40551 (S-form) was conducted and the results were shown as Table 3.

[5] = Toxicity of treatment in tumor-bearing mice (body weight, blood cell count, appearance); type: in vivo; details: three tumor models in mice, edema observed
Method: (§4) The anti-tumor effects of aforementioned prodrugs are evaluated in both solid and liquid tumor models, including the B16-F10 murine melanoma, HTB177 human lung carcinoma models, DLD1 human colon carcinoma, EMT-6 murine mammary gland carcinoma, L1210 murine leukemia, lymphoma, prostate cancer, pancreatic cancer, and head-and-neck cancer. The prodrugs are given intravenously, orally, or intraperitoneally at doses from 10 mg/kg to 2000 mg/kg; they are give at different dosing schedules such as 4 times daily, once daily, or once every several days for up to 60 doses. Testing tumor cells were implanted subcutaneously into mice, which were randomized into groups immediately after tumor cell implantation (Day 0). Mice were injected intraperitoneally (ip) with either a bolus injection of 0.1 mL PBS or drug. The treatment was carried out in a designed dosing schedule. Tumor measurement in three dimensions was determined once a week with the formula L×H×W/2, where L, H, and W represent length, height, and width, respectively. The toxicity of these drugs in mice was mild as determined by body weight loss and animal appearance.
Efficacies of KS119W and KS119 were compared with equivalence molar doses in EMT-6 tumor and H460 tumor models. KS119W was formulated with 0.25M sodium bicarbonate solution. The treatment was started when tumors researched 150 to 200 mm^3, and lasted up to 2 weeks. KS119 at doses of 80 and 100 mg/kg and KS119W at doses of 97.6 and 121.3 mg/kg were daily administrated into mice via ip injection. […] The toxicity of KS119 and KS119W were dose-dependent. To assess the toxicity of treatment, body weight and peripheral blood cell count were monitored after treatment.
Combined therapy of KS119W with cytoxan (CTX) was evaluated by using KS119W at dose below the MTD in combination with nontoxic dose of CTX against EMT-6 murine mammary carcinoma and H460 human lung carcinoma in CD-1 nude mice. The tumors were allowed to grow to a size of approximately 200 mm^3. In H460 tumor model, the animals received either with 4 doses 180 mg/kg and 1 dose 240 mg/kg of […] or CTX at dose of 100 mg/kg per dose per animal, ip injecting the drugs on 15, 22, 27, 34 and 43 days after the tumor implantation. In the combination studies, CTX was given two hours after dosing KS119W. […] The inhibition of combination therapy was statistically significant against all control groups with p values of 0.003, 0.015 and 0.038, respectively. Additive toxicity at the doses used for combination was manageable; while the 180 mg/kg qw ×4 doses of KS119W alone caused a maximum net body weight loss of 4.5%, the same dose in combination with 4 doses of CTX at 100 mg/kg per week caused 8.6% weight loss but no death. A similar degree of growth inhibition was also observed with EMT-6 tumor model. […]

[6] = test system: SHP77 human lung carcinoma; assay: In vivo anti-tumor activity, SHP77 xenograft; design: species or system mice; details: SHP77/Scid-Beige; dose VNP40541 110 mpk, VNP40551 85 mpk
Method: as §4
Efficacy of KS119 was studied in murine tumor model and human xenograft models. EMT-6 murine mammary carcinoma cells (3×10^5 cells/mouse) were implanted subcutaneously into Balb/c mice. […]

C[C@@H](OC(=O)N(N(CCCl)S(C)(=O)=O)S(C)(=O)=O)c1ccc([N+](=O)[O-])c(OP(=O)(O)O)c1 [VNP40541]
Surviving fraction at 0.1% oxygen ([1]; 0.1% oxygen): 0.001368 | Surviving fraction in air ([1]; air): 0.9277 | Assay (HPLC, relative to control samples stored at −15° C.) ([2]; pH 2.0, citrate 20 mM, 3 hrs 40° C.): 98.8% | Assay (HPLC, relative to control samples stored at −15° C.) ([2]; pH 2.0, citrate 20 mM, 24 hrs 40° C.): 92.3% | Assay (HPLC, relative to control samples stored at −15° C.) ([2]; pH 2.0, citrate 20 mM, 24 hrs Room Temp.): 99.3% | Assay (HPLC, relative to control samples stored at −15° C.) ([2]; pH 2.0, citrate None, 3 hrs 40° C.): 98.9% | Assay (HPLC, relative to control samples stored at −15° C.) ([2]; pH 2.0, citrate None, 24 hrs 40° C.): 91.7% | Assay (HPLC, relative to control samples stored at −15° C.) ([2]; pH 2.0, citrate None, 24 hrs Room Temp.): 99.4% | Assay (HPLC, relative to control samples stored at −15° C.) ([2]; pH 3.0, citrate 20 mM, 3 hrs 40° C.): 98.9% | Assay (HPLC, relative to control samples stored at −15° C.) ([2]; pH 3.0, citrate 20 mM, 24 hrs 40° C.): 91.3% | Assay (HPLC, relative to control samples stored at −15° C.) ([2]; pH 3.0, citrate 20 mM, 24 hrs Room Temp.): 99.3% | Assay (HPLC, relative to control samples stored at −15° C.) ([2]; pH 4.0, citrate 20 mM, 3 hrs 40° C.): 99.8% | Assay (HPLC, relative to control samples stored at −15° C.) ([2]; pH 4.0, citrate 20 mM, 24 hrs 40° C.): 92.2% | Assay (HPLC, relative to control samples stored at −15° C.) ([2]; pH 4.0, citrate 20 mM, 24 hrs Room Temp.): 100.1% | Assay (HPLC, relative to control samples stored at −15° C.) ([2]; pH 5.0, citrate 20 mM, 3 hrs 40° C.): 98.8% | Assay (HPLC, relative to control samples stored at −15° C.) ([2]; pH 5.0, citrate 20 mM, 24 hrs 40° C.): 92.2% | Assay (HPLC, relative to control samples stored at −15° C.) ([2]; pH 5.0, citrate 20 mM, 24 hrs Room Temp.): 99.4% | Assay (HPLC, relative to control samples stored at −15° C.) ([2]; pH 5.0, citrate None, 3 hrs 40° C.): 99.4% | Assay (HPLC, relative to control samples stored at −15° C.) ([2]; pH 5.0, citrate None, 24 hrs 40° C.): 92.5% | Assay (HPLC, relative to control samples stored at −15° C.) ([2]; pH 5.0, citrate None, 24 hrs Room Temp.): 99.7% | Assay (HPLC, relative to control samples stored at −15° C.) ([2]; pH 6.0, citrate 20 mM, 3 hrs 40° C.): 99.0% | Assay (HPLC, relative to control samples stored at −15° C.) ([2]; pH 6.0, citrate 20 mM, 24 hrs 40° C.): 93.8% | Assay (HPLC, relative to control samples stored at −15° C.) ([2]; pH 6.0, citrate 20 mM, 24 hrs Room Temp.): 98.6% | Assay (HPLC, relative to control samples stored at −15° C.) ([2]; pH 6.0, citrate None, 3 hrs 40° C.): 99.3% | Assay (HPLC, relative to control samples stored at −15° C.) ([2]; pH 6.0, citrate None, 24 hrs 40° C.): 93.8% | Assay (HPLC, relative to control samples stored at −15° C.) ([2]; pH 6.0, citrate None, 24 hrs Room Temp.): 100.0% | Assay (HPLC, relative to control samples stored at −15° C.) ([2]; pH 7.0, citrate 20 mM, 3 hrs 40° C.): 99.6% | Assay (HPLC, relative to control samples stored at −15° C.) ([2]; pH 7.0, citrate 20 mM, 24 hrs 40° C.): 94.0% | Assay (HPLC, relative to control samples stored at −15° C.) ([2]; pH 7.0, citrate 20 mM, 24 hrs Room Temp.): 99.7% | Surviving fraction at 0.1% oxygen ([3]; 0.1% oxygen): 0.04737 | Surviving fraction in air ([3]; air): 1.086 | MTD ([4]; BALB/c mice, × 5): 100 mpk | MTD ([4]; Nude CD-1 mice, × 10): 140 mpk | MTD ([4]; Scid/Beige mice, × 8): 110 mpk | toxicity compared between the enantiomers [5]: lower toxicity, particularly having less edema observed | Inhibition (%) [6]: 83%
